Values of other authors as cited in patent US8138216B2, “Cannabinoid receptor antagonists/inverse agonists useful for treating metabolic disorders, including obesity and diabetes” (Jenrin Discovery, Inc., priority 2007, dated 2012).

System: patients with type 2 diabetes
Conditions: after six months of treatment; baseline value 7.9; patients not treated with other anti-diabetic medications; placebo 0.3%

For Cc1c(C(=O)NN2CCCCC2)nn(-c2ccc(Cl)cc2Cl)c1-c1ccc(Cl)cc1 [rimonabant], the HbA1c levels lowered is given as 0.8%.
